Laboratory results: patent publication US9931379B2, “Oxyntomodulin analogs and methods of making and using same” (The Research Foundation for The State University of New York, priority 2015, dated 2018)
Starred links: 1 amine or outer side, 2 acyl side, 3 side chain; linkers in the order of their positions; H or OH if unused. Positions of bridges follow the written chain, without caps; N, C: chain ends. Non-standard residues stand in square brackets, D forms with d. Residues, ends and D or L forms follow the SMILES beside them. Biphenyl(4,4'-CH2)2 = c1cc(-c2ccc(C[*:2])cc2)ccc1C[*:1]

What was measured:
GCGR = molecular target: T1, GCGR (Homo sapiens, UniProt P47871); assay: CRE-driven luciferase reporter assay, HEK293 cells overexpressing GCGR; assay type: cell-based; conditions: for GCGR activation, result in words: comparison
T1 construct: expressed in transfected cells
T1 sequence (P47871 26-477): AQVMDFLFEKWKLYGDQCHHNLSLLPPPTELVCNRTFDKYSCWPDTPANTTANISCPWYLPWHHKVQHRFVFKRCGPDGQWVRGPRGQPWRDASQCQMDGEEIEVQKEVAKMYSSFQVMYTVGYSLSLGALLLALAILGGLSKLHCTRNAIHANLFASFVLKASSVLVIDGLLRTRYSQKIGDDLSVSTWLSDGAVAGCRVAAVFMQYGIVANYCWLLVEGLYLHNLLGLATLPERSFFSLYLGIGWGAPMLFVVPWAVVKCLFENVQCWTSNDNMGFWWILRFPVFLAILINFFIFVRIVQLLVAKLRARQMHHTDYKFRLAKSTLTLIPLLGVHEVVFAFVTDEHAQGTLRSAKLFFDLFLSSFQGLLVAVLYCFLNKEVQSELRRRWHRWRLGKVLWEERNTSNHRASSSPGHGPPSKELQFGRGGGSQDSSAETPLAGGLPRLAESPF
Experimental: (§1) The surviving cells (referred to as CRE-HEK293) were expanded and then transfected with a G418 selective mammalian expression plasmid encoding human GCGR or GLP-1R, followed by geneticin selection (Life technologies, Carlsbad, Calif.). Single-colony stable cell lines expressing both CRE-luciferase and GCGR/GLP-1R were then established for in vitro activity assays.
(§2) HEK293-GCGR-CRE and HEK293-GLP-1R-CRE cells were seeded in a white 384-well plate at a density of 5,000 cells per well and cultured for 24 hours in DMEM with 10% FBS at 37° C. with 5% CO2. Cells were treated with different peptides in a dose dependent manner. After 24 hours, 10 μL of Bright-Glo reagent (Promega, Madison, Wis.) was added to each well and luminescence was determined using an Envision multilabel plate reader (PerkinElmer, Waltham, Mass.). The EC50 of each peptide was calculated using GraphPad Prism 6 software (GraphPad, San Diego, Calif.).

GLP-1R = molecular target: T2, GLP-1R (Homo sapiens, UniProt P43220); assay: CRE-driven luciferase reporter assay, HEK293 cells overexpressing GLP-1R; assay type: cell-based
T2 construct: expressed in transfected cells
T2 sequence (P43220 24-463): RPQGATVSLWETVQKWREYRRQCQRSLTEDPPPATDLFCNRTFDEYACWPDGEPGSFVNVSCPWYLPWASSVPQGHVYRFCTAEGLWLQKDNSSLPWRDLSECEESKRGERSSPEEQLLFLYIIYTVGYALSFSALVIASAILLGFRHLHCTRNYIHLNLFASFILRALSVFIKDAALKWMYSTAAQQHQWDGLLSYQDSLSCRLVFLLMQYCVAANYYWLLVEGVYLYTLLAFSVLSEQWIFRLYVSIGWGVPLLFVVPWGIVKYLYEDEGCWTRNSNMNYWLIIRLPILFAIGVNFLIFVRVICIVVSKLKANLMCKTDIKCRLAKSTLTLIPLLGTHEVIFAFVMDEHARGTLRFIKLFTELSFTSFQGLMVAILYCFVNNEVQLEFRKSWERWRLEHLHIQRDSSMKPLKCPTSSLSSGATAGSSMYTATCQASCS
Experimental: as §1, §2

[1] = compared to its linear counterpart

Row | GCGR activation, result in words (GCGR) | increase in activity toward GLP-1R on crosslinking (GLP-1R; [1]) | increase in activity toward GCGR on crosslinking (GCGR; [1]) | GLP-1R activation, result in words (GLP-1R; comparison) | SMILES
1 | less potent | – | – | – | CC[C@H](C)[C@H](NC(=O)[C@H](CC(N)=O)NC(=O)[C@H](CC(N)=O)NC(=O)[C@H](CCCNC(=N)N)NC(=O)[C@H](CC(N)=O)NC(=O)[C@H](CCCNC(=N)N)NC(=O)[C@H](CCCCN)NC(=O)[C@@H](NC(=O)[C@H](CC(N)=O)NC(=O)[C@H](CCSC)NC(=O)[C@H](CC(C)C)NC(=O)[C@H](Cc1c[nH]c2ccccc12)NC(=O)[C@H](CS)NC(=O)[C@@H](NC(=O)[C@H](Cc1ccccc1)NC(=O)[C@H](CC(C)C)NC(=O)[C@H](CCCNC(=N)N)NC(=O)[C@@H](NC(=O)[C@H](C)NC(=O)[C@H](CS)NC(=O)[C@H](CCC(=O)O)NC(=O)[C@H](CC(=O)O)NC(=O)[C@H](CC(C)C)NC(=O)[C@H](Cc1ccc(O)cc1)NC(=O)[C@H](CCCCN)NC(=O)[C@H](CO)NC(=O)[C@H](Cc1ccc(O)cc1)NC(=O)[C@H](CC(=O)O)NC(=O)[C@H](CO)NC(=O)[C@@H](NC(=O)[C@H](Cc1ccccc1)NC(=O)[C@@H](NC(=O)CNC(=O)[C@H](CCC(N)=O)NC(=O)[C@@H](CO)NC(=O)[C@@H](N)Cc1c[nH]cn1)[C@@H](C)O)[C@@H](C)O)C(C)C)[C@@H](C)CC)[C@@H](C)O)C(=O)N[C@@H](C)C(N)=O [peptide 8] (H-H[dS]QGTFTSDYSKYLDECAVRLFICWLMNTKRNRNNIA-NH2)
2 | – | 2 fold | 16 fold | – | CC[C@H](C)[C@H](NC(=O)[C@H](CC(N)=O)NC(=O)[C@H](CC(N)=O)NC(=O)[C@H](CCCNC(=N)N)NC(=O)[C@H](CC(N)=O)NC(=O)[C@H](CCCNC(=N)N)NC(=O)[C@H](CCCCN)NC(=O)[C@@H](NC(=O)[C@H](CC(N)=O)NC(=O)[C@H](CCSC)NC(=O)[C@H](CC(C)C)NC(=O)[C@H](Cc1c[nH]c2ccccc12)NC(=O)[C@@H]1CSCc2ccc(cc2)-c2ccc(cc2)CSC[C@@H](NC(=O)[C@H](CO)NC(=O)[C@H](CC(=O)O)NC(=O)[C@H](CC(C)C)NC(=O)[C@H](Cc2ccc(O)cc2)NC(=O)[C@H](CCCCN)NC(=O)[C@H](CO)NC(=O)[C@H](Cc2ccc(O)cc2)NC(=O)[C@H](CC(=O)O)NC(=O)[C@H](CO)NC(=O)[C@@H](NC(=O)[C@H](Cc2ccccc2)NC(=O)[C@@H](NC(=O)CNC(=O)[C@H](CCC(N)=O)NC(=O)[C@@H](CO)NC(=O)[C@@H](N)Cc2c[nH]cn2)[C@@H](C)O)[C@@H](C)O)C(=O)N[C@@H](CCCNC(=N)N)C(=O)N[C@@H](C)C(=O)N[C@@H](CCC(N)=O)C(=O)N[C@@H](CC(=O)O)C(=O)N[C@@H](Cc2ccccc2)C(=O)N[C@@H](C(C)C)C(=O)N1)[C@@H](C)O)C(=O)N[C@@H](C)C(N)=O [peptide 3] (H-H[dS]QGTFTSDYSKYLDS[dC]RAQDFVCWLMNTKRNRNNIA-NH2; linker 17-24 via Biphenyl(4,4'-CH2)2)
3 | modest enhancement | – | – | modest enhancement | CC[C@H](C)[C@H](NC(=O)[C@H](CC(N)=O)NC(=O)[C@H](CC(N)=O)NC(=O)[C@H](CCCNC(=N)N)NC(=O)[C@H](CC(N)=O)NC(=O)[C@H](CCCNC(=N)N)NC(=O)[C@H](CCCCN)NC(=O)[C@@H](NC(=O)[C@H](CC(N)=O)NC(=O)[C@H](CCSC)NC(=O)[C@H](CC(C)C)NC(=O)[C@H](Cc1c[nH]c2ccccc12)NC(=O)[C@H](CS)NC(=O)[C@@H](NC(=O)[C@H](Cc1ccccc1)NC(=O)[C@H](CC(=O)O)NC(=O)[C@H](CCC(N)=O)NC(=O)[C@H](C)NC(=O)[C@H](CCCNC(=N)N)NC(=O)[C@H](CS)NC(=O)[C@H](CCC(=O)O)NC(=O)[C@H](CC(=O)O)NC(=O)[C@H](CC(C)C)NC(=O)[C@H](Cc1ccc(O)cc1)NC(=O)[C@H](CCCCN)NC(=O)[C@H](CO)NC(=O)[C@H](Cc1ccc(O)cc1)NC(=O)[C@H](CC(=O)O)NC(=O)[C@H](CO)NC(=O)[C@@H](NC(=O)[C@H](Cc1ccccc1)NC(=O)[C@@H](NC(=O)CNC(=O)[C@H](CCC(N)=O)NC(=O)[C@@H](CO)NC(=O)[C@@H](N)Cc1c[nH]cn1)[C@@H](C)O)[C@@H](C)O)C(C)C)[C@@H](C)O)C(=O)N[C@@H](C)C(N)=O [peptide 5] (H-H[dS]QGTFTSDYSKYLDECRAQDFVCWLMNTKRNRNNIA-NH2)
